Measurements reported in patent publication US20230108093A1, “METHODS FOR PREDICTING AND TREATING LAMENESS” (Novus International, Inc., priority 2021, published 2023).

System: barrows
Assay: Fast growth study (Example 2): average daily growth, gait score, lameness incidence
Assay type: in vivo, pig
Details: pigs fed RAC 10 ppm last 25 days, regardless of diet
Protocol: A study was conducted in 144 healthy barrows, in which serum biomarkers were measured over 69 days at day 0, day 28, and day 69. Fast growth was induced in some pigs as explained below.
The study was a 2×2 factorial study. The first factor was diet. Pigs were fed either inorganic trace minerals (ITM) or Mintrex° (MTX), an organic mineral. The ITM included a ratio of 120-20-40 ppm Zn—Cu—Mn. The MTX included a ratio of 80-10-20 ppm Zn—Cu—Mn.
The second factor was feeding ractopamine (RAC; a beta-adrenergic agonist) to induce fast growth. Pigs were fed ractopamine at either 0 ppm or 10 ppm during the last 25 days of the trial.

CC(CCc1ccc(O)cc1)NCC(O)c1ccc(O)cc1 (racemic) [RAC, ractopamine]
ADG (average daily growth): increased
